Measured values as given in patent US20260256799A1, “INHIBITORS FOR TREATING SOLID TUMOURS” (UNIVERSITY OF SOUTHAMPTON, priority 2023, published 2026).

Key:
[1] = system: MC38 cells + TGF-β1-treated murine colon fibroblasts (myoMCF); assay: Isograft model MC38 + myoMCF (myoCAF-high tumours); type: in vivo, C57/BL6 female mice; details: AZD0156, myoCAF-high MC38 tumours
Description: SMA immunohistochemistry (IHC; Sigma Aldrich; A2547) on FFPE tissues was performed as previously: in brief, tissues were fixed in 4% paraformaldehyde and embedded in paraffin. 4 μm sections were de-paraffinized, rehydrated and antigen retrieved for 20 minutes at 97° C. using a predefined program on the Dako PT links. Antigen retrieval was performed using Envision FLEX High pH. Endogenous peroxidase activity was blocked using 3% hydrogen peroxide. Mouse Ig blocking reagent (M.O.M kit vector labs) was applied for 1 hour. Primary antibody incubation (1:100) in M.O.M diluent (vector labs) was for 20 minutes. […] Images were captured using an Olympus CKX41 microscope with Cell B imaging software. % area of staining was calculated using Fiji software (java) by running the ‘color deconvolution’ tool analyzing H DAB. […] The mean was calculated from 2 or 3 mice/experimental group.
Quantification of SMA staining in mouse tumours was carried out using color thresholding and deconvolution in Fiji. […]
CD8 and CD4 IHC was performed on frozen tissue embedded in OCT using [YTS169 (CD8; in house) and RM4-5 (CD4; BD) (FIG. 6c & FIG. 12e). […] CD8 and CD4 T-cells were counted from ten randomly selected fields of view (FoV) from the tumour by a consultant pathologist (GJT). […]

TC-1 cells = assay: Isograft model TC-1 alone (control, myoCAF-low tumours); type: in vivo, C57/BL6 female mice; details: AZD0156 20 mg/Kg oral gavage daily
Description: All mouse experiments were performed according to national and international guidelines and were approved by the authors' institutional review board and the UK Home Office. Xenograft model: 6.7×10^5 PT cells±2×10^6 HFFF2 cells were resuspended in 100 μl PBS and injected s.c. in the flank of partially immunocompromised, male RAG1−/−C57BL/6 mice (3-5 months old). Isograft models: 0.5×10^5 TC-1 cells±3×10^5 TGF-β1-treated murine lung fibroblasts (myoMLFs) or 1×10^5 MC38 cells±5×10^5 TGF-β1-treated murine colon fibroblasts (myoMCFs) were resuspended in 100 μl PBS and injected s.c. in the flank of C57/BL6 female mice (6-8 weeks old). 5-8 animals for both models were used per group. Tumour size was measured over time using an electronic caliper and calculated using the formula 4π/3×r3 [radius (r) calculated from the average diameter, measured as the tumour width and length]. […]
The area under the curve (AUC) for each individual tumour within a treatment group for multiple experiments was analyzed by ordinary Two-way Anova using as two independent variables ‘the experiments’ (factor 1) and ‘the treatments’ (factor 2), and as dependent variable ‘the AUC’ of each mouse; then, the inventors looked at just factor 2. […]

[2] = monotherapy, dose escalation phase 1; cited from earlier work

CN(C)CCCOc1ccc(-c2ccc3ncc4c(c3c2)n(C2CCOCC2)c(=O)n4C)cn1 [AZD0156]
CD4 T-cell infiltration (IHC) [1]: unaffected
location of CD8 T-cells, tumour periphery to tumour core (IHC) [1]: significant relocation
growth of control (myoCAF-low) tumours (TC-1 cells): minimal effect
adverse effects [2]: not yet reporting to be associated with adverse effects
